Test results as given in US20230123334A1, “AMINO LIPID COMPOUND, PREPARATION METHOD THEREFOR, AND APPLICATION THEREOF” (SHENZHEN SHENXIN BIOTECHNOLOGY CO., LTD., priority 2020, published 2023).

Legend:
HEK293 cells [1] = experiment: Preliminary screening as DNA vectors, GFP transfection of HEK293 cells; type: cell-based; conditions: HEK293 cells; lipid/DOPE liposome with 75 ng plasmid DNA (psin-EGFP-IRES-Puro); number of cells expressing GFP divided by total number of nuclei (Hoechst)
Outline: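 Lipid + DOPE liposomes (NaOAc, pH 5.6) complexed w/ 75 ng psin-EGFP-IRES-Puro, 30 min RT; added to 3-5×10^4 HEK293/well, 37° C. Hoechst 0.2 μg/mL at 20-24 h, imaged after further 20-24 h. Efficiency = GFP+ cells / total nuclei.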

HEK293 cells [2] = experiment: Preliminary screening as mRNA vectors, EGFP mRNA transfection of HEK293 cells; type: cell-based; conditions: HEK293 cells, 96-well plates, EGFP mRNA 50 ng per well; percentage of GFP fluorescent cells relative to total number of cells (Hoechst)
Outline: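 Each well of HEK293 cells received 50 ng of EGFP mRNA. Efficiency was expressed as percent GFP-expressing cells over Hoechst-defined total cell number.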

| Structure (SMILES) | Absolute DNA transfection efficiency in HEK293 cells (HEK293 cells [1]) | Absolute mRNA transfection efficiency in HEK293 cells (HEK293 cells [2]) |
| --- | --- | --- |
| CCCCCCCCCCCCCCCSc1nc(NCCCN2CCN(C)CC2)nc(SCCCCCCCCCCCC)n1 [Compound S12S15D9] | 2.0% | 0.9% |
| CCCCCCCCCCCCCCCSc1nc(NCC2CCN(C)CC2)nc(SCCCCCCCCCCCC)n1 [Compound S12S15D10] | 9.9% | 43.1% |
| CCCCCCCCCCCCCCCCSc1nc(NCCN(C)C)nc(SCCCCCCCCCCCC)n1 [Compound S12S16D1] | 0.6% | 0.0% |
| CCCCCCCCCCCCCCCCSc1nc(NCCN2CCOCC2)nc(SCCCCCCCCCCCC)n1 [Compound S12S16D2] | 0.0% | 0.0% |
| CCCCCCCCCCCCCCCCSc1nc(NCCN2CCCC2)nc(SCCCCCCCCCCCC)n1 [Compound S12S16D3] | 2.0% | 0.1% |
| CCCCCCCCCCCCCCCCSc1nc(NCCN2CCCCC2)nc(SCCCCCCCCCCCC)n1 [Compound S12S16D4] | 3.3% | 6.3% |
| CCCCCCCCCCCCCCCCSc1nc(NCCN2CCN(C)CC2)nc(SCCCCCCCCCCCC)n1 [Compound S12S16D5] | 0.1% | 0.1% |
| CCCCCCCCCCCCCCCCSc1nc(NCCCN(C)C)nc(SCCCCCCCCCCCC)n1 [Compound S12S16D6] | 2.7% | 1.2% |
| CCCCCCCCCCCCCCCCSc1nc(NCCN(CC)CC)nc(SCCCCCCCCCCCC)n1 [Compound S12S16D7] | 0.7% | 0.0% |
| CCCCCCCCCCCCCCCCSc1nc(NCCCN2CCOCC2)nc(SCCCCCCCCCCCC)n1 [Compound S12S16D8] | 0.2% | 0.0% |
| CCCCCCCCCCCCCCCCSc1nc(NCCCN2CCN(C)CC2)nc(SCCCCCCCCCCCC)n1 [Compound S12S16D9] | 0.5% | 0.0% |
| CCCCCCCCCCCCCCCCSc1nc(NCC2CCN(C)CC2)nc(SCCCCCCCCCCCC)n1 [Compound S12S16D10] | 7.3% | 13.2% |
| CCCCCCCCCCCCCCCCCCSc1nc(NCCN(C)C)nc(SCCCCCCCCCCCC)n1 [Compound S12S18D1] | 0.0% | 0.0% |
| CCCCCCCCCCCCCCCCCCSc1nc(NCCN2CCOCC2)nc(SCCCCCCCCCCCC)n1 [Compound S12S18D2] | 0.0% | 0.0% |
| CCCCCCCCCCCCCCCCCCSc1nc(NCCN2CCCC2)nc(SCCCCCCCCCCCC)n1 [Compound S12S18D3] | 2.1% | 0.2% |
| CCCCCCCCCCCCCCCCCCSc1nc(NCCN2CCCCC2)nc(SCCCCCCCCCCCC)n1 [Compound S12S18D4] | 2.6% | 5.1% |
| CCCCCCCCCCCCCCCCCCSc1nc(NCCN2CCN(C)CC2)nc(SCCCCCCCCCCCC)n1 [Compound S12S18D5] | 0.7% | 0.0% |
| CCCCCCCCCCCCCCCCCCSc1nc(NCCCN(C)C)nc(SCCCCCCCCCCCC)n1 [Compound S12S18D6] | 1.0% | 0.1% |
| CCCCCCCCCCCCCCCCCCSc1nc(NCCN(CC)CC)nc(SCCCCCCCCCCCC)n1 [Compound S12S18D7] | 0.7% | 0.0% |
| CCCCCCCCCCCCCCCCCCSc1nc(NCCCN2CCOCC2)nc(SCCCCCCCCCCCC)n1 [Compound S12S18D8] | 0.4% | 0.0% |
| CCCCCCCCCCCCCCCCCCSc1nc(NCCCN2CCN(C)CC2)nc(SCCCCCCCCCCCC)n1 [Compound S12S18D9] | 1.0% | 0.0% |
| CCCCCCCCCCCCCCCCCCSc1nc(NCC2CCN(C)CC2)nc(SCCCCCCCCCCCC)n1 [Compound S12S18D10] | 7.5% | 7.7% |
| CCCCCCCCCCCCCCSc1nc(NCCN(C)C)nc(SCCCCCCCCCCCCCC)n1 [Compound S14S14D1] | 0.1% | 0.0% |

| Structure (SMILES) | Absolute DNA transfection efficiency in HEK293 cells (HEK293 cells [1]) | Absolute mRNA transfection efficiency in HEK293 cells (HEK293 cells [2]) |
| --- | --- | --- |
| CCCCCCCCCCCCCCSc1nc(NCCN2CCOCC2)nc(SCCCCCCCCCCCCCC)n1 [Compound S14S14D2] | 0.0% | 0.0% |
| CCCCCCCCCCCCCCSc1nc(NCCN2CCCC2)nc(SCCCCCCCCCCCCCC)n1 [Compound S14S14D3] | 0.2% | 0.1% |
| CCCCCCCCCCCCCCSc1nc(NCCN2CCCCC2)nc(SCCCCCCCCCCCCCC)n1 [Compound S14S14D4] | 0.7% | 0.8% |
| CCCCCCCCCCCCCCSc1nc(NCCN2CCN(C)CC2)nc(SCCCCCCCCCCCCCC)n1 [Compound S14S14D5] | 0.0% | 0.0% |
| CCCCCCCCCCCCCCSc1nc(NCCCN(C)C)nc(SCCCCCCCCCCCCCC)n1 [Compound S14S14D6] | 0.2% | 0.2% |
| CCCCCCCCCCCCCCSc1nc(NCCN(CC)CC)nc(SCCCCCCCCCCCCCC)n1 [Compound S14S14D7] | 2.3% | 2.8% |
| CCCCCCCCCCCCCCSc1nc(NCCCN2CCOCC2)nc(SCCCCCCCCCCCCCC)n1 [Compound S14S14D8] | 0.0% | 0.0% |
| CCCCCCCCCCCCCCSc1nc(NCCCN2CCN(C)CC2)nc(SCCCCCCCCCCCCCC)n1 [Compound S14S14D9] | 0.0% | 0.0% |
| CCCCCCCCCCCCCCSc1nc(NCC2CCN(C)CC2)nc(SCCCCCCCCCCCCCC)n1 [Compound S14S14D10] | 0.9% | 1.5% |
| CCCCCCCCCCCCCCCSc1nc(NCCN(C)C)nc(SCCCCCCCCCCCCCC)n1 [Compound S14S15D1] | 0.1% | 0.0% |
| CCCCCCCCCCCCCCCSc1nc(NCCN2CCOCC2)nc(SCCCCCCCCCCCCCC)n1 [Compound S14S15D2] | 0.1% | 0.0% |
| CCCCCCCCCCCCCCCSc1nc(NCCN2CCCC2)nc(SCCCCCCCCCCCCCC)n1 [Compound S14S15D3] | 0.3% | 0.0% |
| CCCCCCCCCCCCCCCSc1nc(NCCN2CCCCC2)nc(SCCCCCCCCCCCCCC)n1 [Compound S14S15D4] | 0.7% | 0.1% |
| CCCCCCCCCCCCCCCSc1nc(NCCN2CCN(C)CC2)nc(SCCCCCCCCCCCCCC)n1 [Compound S14S15D5] | 0.0% | 0.0% |
| CCCCCCCCCCCCCCCSc1nc(NCCCN(C)C)nc(SCCCCCCCCCCCCCC)n1 [Compound S14S15D6] | 0.2% | 0.1% |
| CCCCCCCCCCCCCCCSc1nc(NCCN(CC)CC)nc(SCCCCCCCCCCCCCC)n1 [Compound S14S15D7] | 0.6% | 0.4% |
| CCCCCCCCCCCCCCCSc1nc(NCCCN2CCOCC2)nc(SCCCCCCCCCCCCCC)n1 [Compound S14S15D8] | 0.0% | 0.0% |
| CCCCCCCCCCCCCCCSc1nc(NCCCN2CCN(C)CC2)nc(SCCCCCCCCCCCCCC)n1 [Compound S14S15D9] | 0.0% | 0.0% |
| CCCCCCCCCCCCCCCSc1nc(NCC2CCN(C)CC2)nc(SCCCCCCCCCCCCCC)n1 [Compound S14S15D10] | 0.3% | 0.5% |
| CCCCCCCCCCCCCCCCSc1nc(NCCN(C)C)nc(SCCCCCCCCCCCCCC)n1 [Compound S14S16D1] | 0.0% | 0.0% |
| CCCCCCCCCCCCCCCCSc1nc(NCCN2CCOCC2)nc(SCCCCCCCCCCCCCC)n1 [Compound S14S16D2] | 0.0% | 0.0% |
| CCCCCCCCCCCCCCCCSc1nc(NCCN2CCCC2)nc(SCCCCCCCCCCCCCC)n1 [Compound S14S16D3] | 0.4% | 0.2% |
| CCCCCCCCCCCCCCCCSc1nc(NCCN2CCCCC2)nc(SCCCCCCCCCCCCCC)n1 [Compound S14S16D4] | 0.6% | 0.0% |
